Test systems include NCI-H23; HCT-116; 786-0; SF-268; OVCAR-5; CCRF-CEM; HOP-18; RPMI-8226; SNB-19; OVCAR-3; NCI-H226; OVCAR-8; A498; KM12; DLD-1; IGROV-1; HOP-92; Hs-578T; MCF7; MDA-N.
What all share (test): DTP human tumour cell line panel, 48 h

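Method: 48-hour compound exposure of cells in 96-well plates, five concentrations, linear interpolation of endpoints. GI50 marks 50% less growth.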 Activity calls are given as the source filed them. No stated cut-off is given here; in the data, active = GI50 up to about 1.1 µM and inactive = higher.

The GI50 is the concentration at which growth is held to half of that of the control. In the case of `O=C(O)CCC(N/C=C1/N=C(c2ccccc2)OC1=O)C(=O)O` (stereo unspecified), the GI50 in the experiment with NCI-H23, in the experiment on HCT-116, with 786-0, with SF-268, in the experiment on OVCAR-5 and in the experiment with CCRF-CEM was > 100 µM (inactive) in each case. For the same molecule, the GI50 in the experiment with HOP-18 is 36.1 µM (inactive); in the experiment with RPMI-8226, > 100 µM (inactive); in the experiment with SNB-19 it was > 100 µM (inactive); in the experiment with OVCAR-3 it was > 100 µM (inactive); in the experiment on NCI-H226 it was > 100 µM (inactive); with OVCAR-8, > 100 µM (inactive). Further, the GI50 in the experiment with A498, with KM12, in the experiment with DLD-1 and in the experiment on IGROV-1 was > 100 µM (inactive) in each case.

On to `O=C(CCN1CCCC1)CC(c1ccccc1)c1c(O)c2ccccc2oc1=O` (stereo unspecified), for which the GI50 in the experiment on NCI-H23, in the experiment on HCT-116, with 786-0, in the experiment with SF-268, in the experiment on CCRF-CEM and in the experiment on RPMI-8226 was > 100 µM (inactive) throughout. Besides, the GI50 in the experiment on SNB-19, with OVCAR-3, with NCI-H226, with OVCAR-8, in the experiment with KM12 and in the experiment on DLD-1 was > 100 µM (inactive) in each case. The GI50 with HOP-92 was 20.1 µM (inactive); in the experiment with IGROV-1 it was > 100 µM (inactive).

With `O=C(O)OC12CCCCCC1C(=O)C1CCCCC12` (stereo unspecified), the GI50 was > 100 µM (inactive) in the experiment on NCI-H23; 57.4 µM (inactive) with HCT-116; > 100 µM (inactive) with 786-0; 61.5 µM (inactive) in the experiment on SF-268; > 100 µM (inactive) in the experiment on CCRF-CEM; > 100 µM (inactive) in the experiment with HOP-18. Also, the GI50 in the experiment on RPMI-8226 is 43.1 µM (inactive); in the experiment on SNB-19, 89.5 µM (inactive); in the experiment with NCI-H226, > 100 µM (inactive); in the experiment with OVCAR-8, > 100 µM (inactive); with KM12, > 100 µM (inactive).

`COc1ccc(/C(Cl)=C(\C=O)c2ccc([N+](=O)[O-])cc2)cc1OC`: the GI50 in the experiment on NCI-H23 was 4.26 µM (inactive); with HCT-116 it was 6.15 µM (inactive); in the experiment with 786-0, 4.29 µM (inactive); in the experiment with SF-268, 6.73 µM (inactive); with OVCAR-5, 5.13 µM (inactive); in the experiment with CCRF-CEM, 2.44 µM (inactive). The GI50 with HOP-18 was 10.5 µM (inactive); in the experiment with RPMI-8226, 2.87 µM (inactive); with Hs-578T it was 5.69 µM (inactive); with MCF7, 3.72 µM (inactive); with SNB-19 it was > 46.5 µM (inactive); in the experiment with MDA-N, 3.25 µM (inactive). In addition, the GI50 is 11.5 µM (inactive) with OVCAR-3; 11.4 µM (inactive) in the experiment with NCI-H226; 7.64 µM (inactive) in the experiment on OVCAR-8; 20.5 µM (inactive) in the experiment with A498; 20.4 µM (inactive) in the experiment on KM12; 7.28 µM (inactive) in the experiment with HOP-92. In addition, the GI50 with IGROV-1 is 17.3 µM (inactive).

On to `CC(=O)c1sc(-c2nc(C)c(C(=O)/C=C\c3ccc(/C=C\C(=O)c4sc(-c5nc(C)c(C(C)=O)s5)nc4C)cc3)s2)nc1C`, for which the GI50 in the experiment on NCI-H23 was > 100 µM (inactive); in the experiment with HCT-116, > 100 µM (inactive); with 786-0, > 100 µM (inactive); in the experiment on SF-268, > 100 µM (inactive); with OVCAR-5 it was > 100 µM (inactive); in the experiment with CCRF-CEM it was 80.7 µM (inactive). For the same molecule, the GI50 is > 100 µM (inactive) with HOP-18; 50.5 µM (inactive) in the experiment on RPMI-8226; > 100 µM (inactive) in the experiment with SNB-19; > 100 µM (inactive) in the experiment with OVCAR-3; > 100 µM (inactive) in the experiment on NCI-H226; > 100 µM (inactive) in the experiment on OVCAR-8. Further, the GI50 with KM12, with DLD-1 and with IGROV-1 was > 100 µM (inactive) throughout.

For the molecule `Cc1ccc(-c2cc(=O)c3cc(C)c(C)c(C(=O)O)c3o2)cc1[N+](=O)[O-]`, the GI50 with NCI-H23, with HCT-116, in the experiment with 786-0, in the experiment with SF-268, in the experiment with OVCAR-5 and in the experiment on CCRF-CEM was > 100 µM (inactive) each time. In addition, the GI50 in the experiment on HOP-18, in the experiment with RPMI-8226, in the experiment on SNB-19, with OVCAR-3, with NCI-H226 and in the experiment with OVCAR-8 was > 100 µM (inactive) each time. For the same molecule, the GI50 in the experiment with KM12, with DLD-1 and in the experiment with IGROV-1 was > 100 µM (inactive) throughout.

For the molecule `[O-][S+]1c2ccccc2N=C(c2cccs2)CC1c1ccccc1O` (stereo unspecified), the GI50 in the experiment with NCI-H23 is 67.9 µM (inactive); in the experiment with 786-0, > 100 µM (inactive); with SF-268, > 100 µM (inactive); in the experiment with OVCAR-5 it was > 100 µM (inactive); with CCRF-CEM, > 100 µM (inactive); with RPMI-8226, > 100 µM (inactive). Moreover, the GI50 in the experiment on SNB-19 is > 100 µM (inactive); in the experiment with OVCAR-3, > 100 µM (inactive); in the experiment with NCI-H226 it was > 100 µM (inactive); in the experiment on OVCAR-8, > 100 µM (inactive); with A498 it was 25.4 µM (inactive); in the experiment on KM12, 93.5 µM (inactive). Also, the values for the GI50 in the experiment on DLD-1 and with IGROV-1 were 60.8 µM (inactive) and 16.5 µM (inactive), respectively.

As to `COc1cccc2c1N[S@](=O)S2`, the GI50 with NCI-H23 is > 100 µM (inactive); in the experiment on HCT-116, > 100 µM (inactive); with 786-0 it was > 100 µM (inactive); in the experiment with SF-268, 76 µM (inactive); in the experiment with CCRF-CEM, 36.7 µM (inactive); in the experiment with RPMI-8226 it was 63.4 µM (inactive). The GI50 with SNB-19 was 38.1 µM (inactive); in the experiment with OVCAR-3, > 100 µM (inactive); with NCI-H226, > 100 µM (inactive); with KM12 it was > 100 µM (inactive); in the experiment on DLD-1, 72.9 µM (inactive); in the experiment with HOP-92 it was > 100 µM (inactive). In addition, the GI50 in the experiment on IGROV-1 is > 100 µM (inactive).

Regarding `NC(=O)NC12CC3CC(CC(F)(C3)C1)C2`, the GI50 with NCI-H23, in the experiment with HCT-116, in the experiment on 786-0, with OVCAR-5, with CCRF-CEM and in the experiment with RPMI-8226 was > 100 µM (inactive) in each case. The GI50 in the experiment with SNB-19, in the experiment with OVCAR-3, with OVCAR-8, in the experiment on A498, with KM12 and with DLD-1 was > 100 µM (inactive) throughout. The GI50 in the experiment with HOP-92 and with IGROV-1 was > 100 µM (inactive) each time.

In the case of `CN(C)CC(C)(C)C(=O)/C=C/c1ccc(/C=C/C(=O)C(C)(C)CN(C)C)cc1`, the GI50 was 1.91 µM (inactive) in the experiment with NCI-H23; 1.26 µM (inactive) with HCT-116; 1.6 µM (inactive) with 786-0; 1.35 µM (inactive) with SF-268; 1.82 µM (inactive) in the experiment on OVCAR-5; 1.05 µM (active) in the experiment with CCRF-CEM. Further, the GI50 in the experiment on RPMI-8226 is 1.97 µM (inactive); with SNB-19 it was 1.96 µM (inactive); in the experiment with OVCAR-3 it was 1.29 µM (inactive); with NCI-H226, 2.23 µM (inactive); in the experiment on OVCAR-8 it was 2.39 µM (inactive); in the experiment with A498, 1.9 µM (inactive). The GI50 was 1.85 µM (inactive) in the experiment with KM12, 0.28 µM (active) in the experiment with DLD-1, 0.682 µM (active) with HOP-92 and 1.71 µM (inactive) in the experiment with IGROV-1.

As for `O=C1C[C@@H]2[C@@H](CCC23CC3)N1`, the GI50 in the experiment with NCI-H23, in the experiment with HCT-116, in the experiment on 786-0, in the experiment with SF-268, with OVCAR-5 and in the experiment on CCRF-CEM was > 100 µM (inactive) in each case. Further, the GI50 in the experiment with HOP-18, with RPMI-8226, in the experiment on SNB-19, with OVCAR-3, with NCI-H226 and in the experiment with OVCAR-8 was > 100 µM (inactive) throughout. The GI50 with A498, in the experiment on KM12, in the experiment on DLD-1 and in the experiment on IGROV-1 was > 100 µM (inactive) throughout.

As for `CC(C)=CCC[C@](C)(O[C@@H]1O[C@H](CO)[C@@H](O)[C@H](O)[C@H]1O)[C@H]1CC[C@]2(C)[C@@H]1[C@H](O)C[C@@H]1[C@@]3(C)CC[C@H](O)C(C)(C)[C@@H]3[C@@H](O[C@@H]3O[C@H](CO)[C@@H](O)[C@H](O)[C@H]3O[C@@H]3O[C@@H](C)[C@H](O)[C@@H](O)[C@H]3O)C[C@]12C.CC(C)=CCC[C@](C)(O[C@@H]1O[C@H](CO)[C@@H](O)[C@H](O)[C@H]1O)[C@H]1CC[C@]2(C)[C@@H]1[C@H](O)C[C@@H]1[C@@]3(C)CC[C@H](O)C(C)(C)[C@@H]3[C@@H](O[C@@H]3O[C@H](CO)[C@@H](O)[C@H](O)[C@H]3O[C@@H]3O[C@H](CO)[C@@H](O)[C@H](O)[C@H]3O)C[C@]12C`, the GI50 with NCI-H23 is > 75 µM (inactive); with HCT-116 it was > 75 µM (inactive); in the experiment on 786-0 it was > 75 µM (inactive); in the experiment on SF-268, 54.3 µM (inactive); in the experiment with OVCAR-5, > 75 µM (inactive); with CCRF-CEM, > 75 µM (inactive). The GI50 in the experiment with RPMI-8226 is > 75 µM (inactive); in the experiment with Hs-578T, 51.3 µM (inactive); in the experiment with MCF7, > 75 µM (inactive); in the experiment with SNB-19, > 75 µM (inactive); in the experiment with MDA-N, > 75 µM (inactive); with OVCAR-3, > 75 µM (inactive). Also, the GI50 in the experiment with NCI-H226 is > 75 µM (inactive); with OVCAR-8 it was 34.9 µM (inactive); in the experiment with A498, > 75 µM (inactive); with KM12, > 75 µM (inactive); with HOP-92, > 75 µM (inactive); in the experiment on IGROV-1, > 75 µM (inactive).

For the origin of these results see ChEMBL document CHEMBL1201862, “PubChem BioAssay data set” (2004).
